Experiments:
Experiment in all cases: radiometric filter-binding kinase assay, Kinase HotSpot
Settings in all cases: compound 0.5 µM; ATP 10 µM
PNCK (human) = PNCK (human) (UniProt Q6P2M8)
MARK4 (human) = MARK4 (human) (UniProt Q96L34)
DSTYK (human) = DSTYK (human) (UniProt Q6XUX3)
RPS6KB2 (human) = RPS6KB2 (human) (UniProt Q9UBS0)
FER (human) = FER (human) (UniProt P16591)
ALK (human) = ALK (human) (UniProt Q9UM73)
ULK2 (human) = ULK2 (human) (UniProt Q8IYT8)
EPHB2 (human) = EPHB2 (human) (UniProt P29323)
PRKX (human) = PRKX (human) (UniProt P51817)
PRKX (human), sequence (P51817 whole entry, looked up): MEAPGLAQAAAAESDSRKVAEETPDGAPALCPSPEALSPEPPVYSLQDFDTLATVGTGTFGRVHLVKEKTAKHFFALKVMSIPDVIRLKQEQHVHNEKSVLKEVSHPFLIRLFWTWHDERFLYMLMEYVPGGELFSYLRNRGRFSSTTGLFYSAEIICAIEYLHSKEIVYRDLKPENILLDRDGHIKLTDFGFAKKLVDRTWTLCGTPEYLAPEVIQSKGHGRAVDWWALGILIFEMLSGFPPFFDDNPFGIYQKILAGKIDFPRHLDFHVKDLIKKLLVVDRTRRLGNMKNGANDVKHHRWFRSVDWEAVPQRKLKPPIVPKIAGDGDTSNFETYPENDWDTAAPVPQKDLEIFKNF

CLK4 (human) = CLK4 (human) (UniProt Q9HAZ1)
CLK2 (human) = CLK2 (human) (UniProt P49760)
CSNK1G3 (human) = CSNK1G3 (human) (UniProt Q9Y6M4)
CSNK1G3 (human), sequence (Q9Y6M4 whole entry, looked up): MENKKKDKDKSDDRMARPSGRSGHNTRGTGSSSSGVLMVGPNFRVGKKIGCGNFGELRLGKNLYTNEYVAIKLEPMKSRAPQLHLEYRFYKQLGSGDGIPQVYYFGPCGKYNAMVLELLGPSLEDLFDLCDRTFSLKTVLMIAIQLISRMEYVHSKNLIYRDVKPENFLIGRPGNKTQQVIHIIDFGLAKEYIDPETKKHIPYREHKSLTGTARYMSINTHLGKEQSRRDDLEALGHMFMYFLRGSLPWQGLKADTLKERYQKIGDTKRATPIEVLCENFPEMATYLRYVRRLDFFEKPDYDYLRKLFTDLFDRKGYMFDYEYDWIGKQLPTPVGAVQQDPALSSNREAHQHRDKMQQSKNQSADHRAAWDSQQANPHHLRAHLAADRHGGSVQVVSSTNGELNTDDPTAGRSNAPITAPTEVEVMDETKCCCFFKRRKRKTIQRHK

STK11 (human) = STK11 (human) (UniProt Q15831)
MAP3K8 (human) = MAP3K8 (human) (UniProt P41279)
TAOK2 (human) = TAOK2 (human) (UniProt Q9UL54)
PAK4 (human) = PAK4 (human) (UniProt O96013)
MAP2K2 (human) = MAP2K2 (human) (UniProt P36507)
ERBB4 (human) = ERBB4 (human) (UniProt Q15303)
ERBB4 (human), sequence (Q15303 whole entry, looked up): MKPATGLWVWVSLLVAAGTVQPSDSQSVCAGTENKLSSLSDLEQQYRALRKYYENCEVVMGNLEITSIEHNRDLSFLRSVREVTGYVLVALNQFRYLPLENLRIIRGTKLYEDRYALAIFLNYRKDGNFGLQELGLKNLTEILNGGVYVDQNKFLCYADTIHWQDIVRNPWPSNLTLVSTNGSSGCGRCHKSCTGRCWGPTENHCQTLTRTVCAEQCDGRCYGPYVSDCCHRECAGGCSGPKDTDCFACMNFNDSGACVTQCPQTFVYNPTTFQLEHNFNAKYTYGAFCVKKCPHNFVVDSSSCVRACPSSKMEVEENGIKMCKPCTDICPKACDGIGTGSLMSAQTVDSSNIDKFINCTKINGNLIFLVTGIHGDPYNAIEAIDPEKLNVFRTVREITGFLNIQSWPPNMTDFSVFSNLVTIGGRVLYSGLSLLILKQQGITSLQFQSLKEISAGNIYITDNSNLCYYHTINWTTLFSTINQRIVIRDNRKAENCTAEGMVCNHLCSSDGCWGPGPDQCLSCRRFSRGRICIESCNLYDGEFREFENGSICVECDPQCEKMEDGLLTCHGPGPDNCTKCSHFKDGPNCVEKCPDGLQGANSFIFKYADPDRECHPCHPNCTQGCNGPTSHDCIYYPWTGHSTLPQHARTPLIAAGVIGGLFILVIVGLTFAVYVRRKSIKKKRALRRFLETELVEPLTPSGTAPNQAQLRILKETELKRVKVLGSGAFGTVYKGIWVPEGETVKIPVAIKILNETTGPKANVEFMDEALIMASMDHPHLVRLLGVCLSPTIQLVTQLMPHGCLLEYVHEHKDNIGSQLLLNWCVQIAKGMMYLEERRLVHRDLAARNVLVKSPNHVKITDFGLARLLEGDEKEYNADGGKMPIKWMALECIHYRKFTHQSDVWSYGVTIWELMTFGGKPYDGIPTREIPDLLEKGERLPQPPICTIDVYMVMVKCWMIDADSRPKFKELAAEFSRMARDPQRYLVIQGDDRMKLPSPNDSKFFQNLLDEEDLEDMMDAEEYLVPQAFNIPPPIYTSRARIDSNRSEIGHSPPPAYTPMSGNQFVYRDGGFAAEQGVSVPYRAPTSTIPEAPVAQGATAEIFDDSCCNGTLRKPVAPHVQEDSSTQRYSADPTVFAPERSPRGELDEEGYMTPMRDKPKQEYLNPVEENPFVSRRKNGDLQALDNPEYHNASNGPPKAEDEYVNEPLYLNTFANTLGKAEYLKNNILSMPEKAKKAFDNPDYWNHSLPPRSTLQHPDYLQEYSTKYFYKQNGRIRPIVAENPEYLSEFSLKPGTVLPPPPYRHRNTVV

JAK3 JH1 JH2 (human) = JAK3 JH1 JH2 (human) (UniProt P52333)
CSF1R (human) = CSF1R (human) (UniProt P07333)
NEK7 (human) = NEK7 (human) (UniProt Q8TDX7)
NEK7 (human), sequence (Q8TDX7 whole entry, looked up): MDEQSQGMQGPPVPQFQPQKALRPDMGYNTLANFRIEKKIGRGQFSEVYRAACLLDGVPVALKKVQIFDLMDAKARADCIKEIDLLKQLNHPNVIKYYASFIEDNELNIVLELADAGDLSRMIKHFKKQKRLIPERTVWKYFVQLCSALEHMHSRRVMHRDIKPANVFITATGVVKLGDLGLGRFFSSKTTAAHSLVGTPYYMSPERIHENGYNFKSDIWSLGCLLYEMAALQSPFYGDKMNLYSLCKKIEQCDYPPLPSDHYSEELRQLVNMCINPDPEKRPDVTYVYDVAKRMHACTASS

MAPK10 (human) = MAPK10 (human) (UniProt P53779)
CLK3 (human) = CLK3 (human) (UniProt P49761)
MST1R (human) = MST1R (human) (UniProt Q04912)
TGFBR1 (human) = TGFBR1 (human) (UniProt P36897)
CAMK1 (human) = CAMK1 (human) (UniProt Q14012)
DYRK4 (human) = DYRK4 (human) (UniProt Q9NR20)
DYRK4 (human), sequence (Q9NR20 whole entry, looked up): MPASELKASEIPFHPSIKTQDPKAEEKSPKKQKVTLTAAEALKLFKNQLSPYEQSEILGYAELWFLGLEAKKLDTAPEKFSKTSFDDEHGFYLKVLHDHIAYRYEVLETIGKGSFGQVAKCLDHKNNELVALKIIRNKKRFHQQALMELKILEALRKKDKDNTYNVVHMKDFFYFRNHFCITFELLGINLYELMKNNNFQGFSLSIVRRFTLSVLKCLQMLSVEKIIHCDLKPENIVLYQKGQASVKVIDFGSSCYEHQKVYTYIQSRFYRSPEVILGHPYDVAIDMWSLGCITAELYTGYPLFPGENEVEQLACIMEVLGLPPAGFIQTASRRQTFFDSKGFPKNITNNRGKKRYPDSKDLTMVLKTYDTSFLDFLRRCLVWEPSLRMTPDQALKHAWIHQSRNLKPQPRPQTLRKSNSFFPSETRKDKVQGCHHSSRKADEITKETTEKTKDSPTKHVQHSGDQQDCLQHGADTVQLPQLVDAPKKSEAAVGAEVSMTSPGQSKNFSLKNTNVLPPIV

NUAK1 (human) = NUAK1 (human) (UniProt O60285)
LTK (human) = LTK (human) (UniProt P29376)
CDK5 CDK5R1 p25 (human) = CDK5 CDK5R1 p25 (human) (UniProt Q00535+Q15078)
MAP3K14 (human) = MAP3K14 (human) (UniProt Q99558)
KDR (human) = KDR (human) (UniProt P35968)
RAF1 (human) = RAF1 (human) (UniProt P04049)
ROCK1 (human) = ROCK1 (human) (UniProt Q13464)
PAK6 (human) = PAK6 (human) (UniProt Q9NQU5)
PHKG2 (human) = PHKG2 (human) (UniProt P15735)
MST4 (human) = MST4 (human) (UniProt Q9P289)
HIPK2 (human) = HIPK2 (human) (UniProt Q9H2X6)
HIPK2 (human), sequence (Q9H2X6 whole entry, looked up): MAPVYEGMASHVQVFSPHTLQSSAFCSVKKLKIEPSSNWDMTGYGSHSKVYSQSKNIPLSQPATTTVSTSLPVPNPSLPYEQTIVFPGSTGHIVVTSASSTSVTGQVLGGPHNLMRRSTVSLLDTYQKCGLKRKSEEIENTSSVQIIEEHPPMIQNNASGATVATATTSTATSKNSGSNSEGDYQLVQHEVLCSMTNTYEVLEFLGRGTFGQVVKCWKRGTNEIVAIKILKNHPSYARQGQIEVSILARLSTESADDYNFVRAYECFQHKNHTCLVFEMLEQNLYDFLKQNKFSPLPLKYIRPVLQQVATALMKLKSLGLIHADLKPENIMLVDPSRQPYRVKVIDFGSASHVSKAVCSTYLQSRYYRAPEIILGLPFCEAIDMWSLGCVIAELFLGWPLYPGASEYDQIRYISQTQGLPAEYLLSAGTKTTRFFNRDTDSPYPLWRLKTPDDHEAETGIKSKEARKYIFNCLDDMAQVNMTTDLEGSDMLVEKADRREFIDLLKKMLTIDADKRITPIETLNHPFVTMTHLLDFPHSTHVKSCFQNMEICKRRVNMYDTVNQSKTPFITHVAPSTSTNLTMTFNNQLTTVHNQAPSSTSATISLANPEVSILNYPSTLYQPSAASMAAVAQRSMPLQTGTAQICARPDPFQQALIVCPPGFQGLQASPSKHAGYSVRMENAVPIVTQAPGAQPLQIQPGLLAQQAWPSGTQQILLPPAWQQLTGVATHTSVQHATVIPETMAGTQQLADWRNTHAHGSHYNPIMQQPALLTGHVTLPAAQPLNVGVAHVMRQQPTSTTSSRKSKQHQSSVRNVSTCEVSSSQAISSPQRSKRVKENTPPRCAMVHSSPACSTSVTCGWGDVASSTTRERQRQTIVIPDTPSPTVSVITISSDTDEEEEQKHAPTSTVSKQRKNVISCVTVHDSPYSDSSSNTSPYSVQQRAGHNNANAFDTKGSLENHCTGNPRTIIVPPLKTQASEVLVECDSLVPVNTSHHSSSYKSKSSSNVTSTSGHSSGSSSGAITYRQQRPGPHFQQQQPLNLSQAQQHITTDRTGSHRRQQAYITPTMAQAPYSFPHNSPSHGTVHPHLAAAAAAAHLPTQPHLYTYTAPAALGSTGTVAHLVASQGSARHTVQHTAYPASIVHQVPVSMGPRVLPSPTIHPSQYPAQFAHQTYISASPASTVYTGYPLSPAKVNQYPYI

MAPK9 (human) = MAPK9 (human) (UniProt P45984)
MAPK9 (human), sequence (P45984 whole entry, looked up): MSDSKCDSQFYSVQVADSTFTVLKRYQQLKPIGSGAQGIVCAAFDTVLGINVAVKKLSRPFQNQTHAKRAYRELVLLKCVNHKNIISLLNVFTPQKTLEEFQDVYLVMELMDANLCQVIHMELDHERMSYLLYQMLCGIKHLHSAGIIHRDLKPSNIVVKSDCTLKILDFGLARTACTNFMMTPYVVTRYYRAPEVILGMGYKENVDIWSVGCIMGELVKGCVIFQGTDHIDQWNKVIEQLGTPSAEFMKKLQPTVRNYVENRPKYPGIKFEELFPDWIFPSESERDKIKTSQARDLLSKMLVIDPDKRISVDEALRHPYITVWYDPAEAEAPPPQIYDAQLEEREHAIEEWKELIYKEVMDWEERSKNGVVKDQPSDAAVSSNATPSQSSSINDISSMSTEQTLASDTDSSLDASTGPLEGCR

TEK (human) = TEK (human) (UniProt Q02763)
IRAK4 (human) = IRAK4 (human) (UniProt Q9NWZ3)

RPS6KB2 (human), sequence (Q9UBS0 whole entry, looked up): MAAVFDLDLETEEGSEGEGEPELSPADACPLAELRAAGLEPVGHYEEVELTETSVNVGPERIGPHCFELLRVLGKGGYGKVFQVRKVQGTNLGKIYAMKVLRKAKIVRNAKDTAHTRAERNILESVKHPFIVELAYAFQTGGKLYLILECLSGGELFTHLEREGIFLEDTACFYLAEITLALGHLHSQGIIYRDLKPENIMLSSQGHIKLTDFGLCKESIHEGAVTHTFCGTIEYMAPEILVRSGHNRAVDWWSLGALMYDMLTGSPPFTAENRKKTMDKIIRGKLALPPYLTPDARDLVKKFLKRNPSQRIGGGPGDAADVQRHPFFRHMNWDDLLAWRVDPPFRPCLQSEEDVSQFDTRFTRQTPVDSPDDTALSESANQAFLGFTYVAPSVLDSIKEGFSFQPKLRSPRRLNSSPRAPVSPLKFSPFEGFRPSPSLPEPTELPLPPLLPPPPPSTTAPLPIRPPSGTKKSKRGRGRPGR

O=C1NC(=O)C(c2c[nH]c3ccccc23)=C1c1c[nH]c2ccccc12
residual activity (PNCK (human)): 93.3% | residual activity (MARK4 (human)): 95.3% | residual activity (DSTYK (human)): 99.6% | residual activity (RPS6KB2 (human)): 94.6% | residual activity (FER (human)): 83.5% | residual activity (ALK (human)): 95.7% | residual activity (ULK2 (human)): 92.9% | residual activity (EPHB2 (human)): 96.9% | residual activity (PRKX (human)): 99.5% | residual activity (CLK4 (human)): 76.1% | residual activity (CLK2 (human)): 46.7% | residual activity (CSNK1G3 (human)): 89.9% | residual activity (STK11 (human)): 107% | residual activity (MAP3K8 (human)): 90.8% | residual activity (TAOK2 (human)): 102% | residual activity (PAK4 (human)): 102% | residual activity (MAP2K2 (human)): 82.7% | residual activity (ERBB4 (human)): 110% | residual activity (JAK3 JH1 JH2 (human)): 63% | residual activity (CSF1R (human)): 93.7% | residual activity (NEK7 (human)): 99.9% | residual activity (MAPK10 (human)): 110% | residual activity (CLK3 (human)): 102% | residual activity (MST1R (human)): 93.1% | residual activity (TGFBR1 (human)): 96.6% | residual activity (CAMK1 (human)): 105% | residual activity (DYRK4 (human)): 94.3% | residual activity (NUAK1 (human)): 78.5% | residual activity (LTK (human)): 85.1% | residual activity (CDK5 CDK5R1 p25 (human)): 87.4% | residual activity (MAP3K14 (human)): 91% | residual activity (KDR (human)): 60.8% | residual activity (RAF1 (human)): 122% | residual activity (ROCK1 (human)): 97.4% | residual activity (PAK6 (human)): 92.4% | residual activity (PHKG2 (human)): 107% | residual activity (MST4 (human)): 59.2% | residual activity (HIPK2 (human)): 104% | residual activity (MAPK9 (human)): 95.4% | residual activity (TEK (human)): 101% | residual activity (IRAK4 (human)): 92%
